# According to patent publication US11220672B2, “Human pluripotent stem cell-based system for generating endothelial cells” (Wisconsin Alumni Research Foundation, priority 2014, dated 2022):
# Legend:
# [1] = tested on: ERK; assay: Western blot of ERK activity (pERK) in endothelial cells in 2D culture; format: cell-based, human; details: ECs on TCP (2D culture)
# Text: (§1) (D) Top 10 (TPM>100, top 10 fold change) vasculature (TPM>100, Top 10 fold change) (AmiGO, GO:0001944) and cell cycle genes (AmiGO, GO:0007049) from RNA-seq. Full gene list of vasculature and cell cycle was generated by Amigo. […] Data was normalized to DMSO control (not shown). […] Data was normalized to NT control. ERK2i, siRNA of ERK2. NT, non-targeting.
# (§2) We investigated a potential role for ERK signaling on cell cycle gene expression for ECs cultured on TCP surfaces since ERK regulates EC functions that include proliferation, blood vessel morphogenesis, and mechanotransduction^34,35,43-46. […] We further investigated the role for ERK activity in regulating the shift to a proliferative phenotype by comparing the top 10 enriched cycle genes from 2D culture and vascular development genes from 3D culture (Day 3) for ECs on TCP after pERK inhibition (FIGS. 3b-d).
# [2] = tested on: vasculature and cell cycle genes; assay: RT-qPCR of vasculature and cell cycle gene expression in ECs on TCP; format: cell-based, human; details: normalized to control
# Text: as §1, §2
# [3] = tested on: endothelial cells (ECs); format: cell-based; details: ECs on TCP (2D culture)
# Text: as §1
structure (smiles),measurement,setting,value
N#CC(=C(/N)Sc1ccccc1N)/C(C#N)=C(\N)Sc1ccccc1N [U0126],ERK activity (Western blot),[1],decreased ERK activity
same,"cell cycle gene expression (top 10 genes, RT-qPCR)",[2],10 of 10 genes downregulated
same,"vasculature (vascular development) gene expression (top 10 genes, RT-qPCR)",[2],8 of 10 genes upregulated
same,EC proliferation,[3],decreased EC proliferation
